Data: patent US20090029366A1 (priority 2007, published 2009)

Biological target: T1, human HCN1 (Homo sapiens, UniProt O60741)
T1 construct: expressed in transfected cells; host or cells: HEK-293H
T1 sequence (O60741 1-890): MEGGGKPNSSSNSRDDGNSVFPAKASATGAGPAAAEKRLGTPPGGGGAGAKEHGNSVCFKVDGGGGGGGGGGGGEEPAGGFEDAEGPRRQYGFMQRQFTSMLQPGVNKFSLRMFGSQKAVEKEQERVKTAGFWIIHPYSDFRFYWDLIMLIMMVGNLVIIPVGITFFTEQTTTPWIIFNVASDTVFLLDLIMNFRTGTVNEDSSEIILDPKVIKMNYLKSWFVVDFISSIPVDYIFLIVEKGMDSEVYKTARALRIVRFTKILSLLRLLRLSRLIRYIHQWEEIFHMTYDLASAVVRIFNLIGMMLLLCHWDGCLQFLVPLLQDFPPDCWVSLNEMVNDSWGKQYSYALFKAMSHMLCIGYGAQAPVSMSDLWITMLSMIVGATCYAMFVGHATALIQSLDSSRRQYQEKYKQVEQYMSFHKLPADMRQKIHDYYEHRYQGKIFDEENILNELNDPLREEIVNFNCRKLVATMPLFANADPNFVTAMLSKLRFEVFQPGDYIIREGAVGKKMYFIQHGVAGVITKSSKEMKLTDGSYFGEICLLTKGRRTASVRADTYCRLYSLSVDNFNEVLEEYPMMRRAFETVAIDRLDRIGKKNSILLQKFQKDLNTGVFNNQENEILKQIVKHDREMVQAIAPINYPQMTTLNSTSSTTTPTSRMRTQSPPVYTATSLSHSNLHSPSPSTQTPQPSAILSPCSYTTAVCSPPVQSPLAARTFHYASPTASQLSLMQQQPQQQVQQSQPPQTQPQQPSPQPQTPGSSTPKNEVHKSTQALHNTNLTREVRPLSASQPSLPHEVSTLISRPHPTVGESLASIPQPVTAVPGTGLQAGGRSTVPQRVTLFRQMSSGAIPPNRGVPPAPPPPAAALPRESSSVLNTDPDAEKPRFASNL
Experiment: MPSD FLIPR 96 well hyperpolarization assay, HCN1
Type: cell-based
Design: blockade of hyperpolarization (change in fluorescence), FIG. 4 legend: dose or concentration left out as unconfirmed
Description: The above-described assay was modified for use with the FLIPR®^96 or FLEX^96 96 well plate format. In brief, cells stably expressing HCN channels were plated at 40-80×10^3 cells/plate in 100-150 μl/well of DMEM supplemented with 10% fetal bovine serum, 1× NEAA, and 1× penicillin/streptomycin. Cells were cultured for 24-48 hours in a 5% CO2/air humidifiedincubator at 37° C. Cells were incubated in 30 μl/well of HBSS containing MPSD, as described above, for 15-45 minutes at room temperature.
Membrane potentials were measured at room temperature (21°-23°) using a FLIPR® system or a FLEXSTATION® (Molecular Devices of Sunnydale, Calif.). Control cells were incubated in HBSS/MPSD without a test agent. For identification of HCN channel modulators, cells were incubated in HBSS/MPSD and the presence of a test agent as described in Examples 5 and 6 herein below.
HEK-293H cells stably expressing HCN1 or HCN3 channels were each plated at 40-80×10^3 cells/plate in a FLIPR®^96 well format in 100-150 μl/ well of DMEM supplemented with 10% fetal bovine serum and penicillin/streptomycin. The cells were cultured for 24-48 hours in a 5% CO2/air humidified incubatorat 37° C.
[…] Cells were incubated for 15 to 45 minutes. […] The change in fluorescence (ΔF) was measured for a total assay time of about 100 seconds. […]

CCN(c1ccccc1)c1cc(=NC)n(C)c(C)n1.Cl [ZD7288]
blockade of hyperpolarization (change in fluorescence) (50 μM ZD7288, HEK-293H HCN1, about 100 seconds): effectively blocked hyperpolarization | blockade of hyperpolarization (change in fluorescence), FIG. 4 legend (cells expressing HCN1): effectively blocked hyperpolarization
